Experiment [1] concerns the target Mitogen-activated protein kinase 1 (Homo sapiens) (UniProt P28482). Briefly: total ERK1/2 protein level change, either direction, late-stage follow-up, counter-screen for KLF5 inhibitor project, HT29 cells, chemiluminescent western blot, powder samples (AID 588656). The conditions noted are these: HT29 cells, ERK1/2 western blot, 24 h; at 10 µM; stronger effect = higher value.

Experiment [2] deals with HT29 cells, ERK1/2 western blot, 24 h. The description is as above. The conditions noted are these: measured here: ERK1/2 protein fold change vs DMSO; at 10 µM.

Chain of Mitogen-activated protein kinase 1 (Homo sapiens) (P28482 whole entry, looked up): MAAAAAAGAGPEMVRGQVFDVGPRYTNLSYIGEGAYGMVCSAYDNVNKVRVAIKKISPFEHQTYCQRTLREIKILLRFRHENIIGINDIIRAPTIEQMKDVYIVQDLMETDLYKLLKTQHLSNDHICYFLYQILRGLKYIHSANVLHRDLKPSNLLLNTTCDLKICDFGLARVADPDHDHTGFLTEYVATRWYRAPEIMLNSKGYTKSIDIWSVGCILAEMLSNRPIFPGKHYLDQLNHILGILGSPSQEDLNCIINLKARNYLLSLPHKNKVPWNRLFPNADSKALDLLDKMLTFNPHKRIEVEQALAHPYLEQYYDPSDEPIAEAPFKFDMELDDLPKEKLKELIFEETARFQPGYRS

Consider `CN(C(=O)COC(=O)/C=C/c1cccc([N+](=O)[O-])c1)C1CCS(=O)(=O)C1` (stereo unspecified), for which the inhibition (usually the relative decrease from the control value, in per cent) in experiment [1] is -46.4%. Besides, in experiment [2], the fold change was determined as 1.46.
Regarding `CN(C(=O)CNC(=O)/C=C/c1cccc(Cl)c1)C1CCS(=O)(=O)CC1`, the inhibition in experiment [1] was -96.5%. The molecule also registered a fold change in experiment [2] of 1.97.
The matching figures for `CN(C(=O)CNC(=O)/C=C/c1cccc(Cl)c1)C1CCS(=O)(=O)C1` (stereo unspecified): -96.6% and 1.97.

The record behind these values is PubChem BioAssay AID588656 (The Scripps Research Institute Molecular Screening Center, 2011).
